Reference: ChEMBL document CHEMBL1201861, “Genomics of Drug Sensitity in Cancer screening data, Wellcome Trust Sanger Institute”
pIC50: −log10 of the molar value.

Key:
Experiment in all cases: cells
[1] = system: CP66-MEL; assay type: functional, cell-based, Homo sapiens; conditions: Homo sapiens, CP66-MEL;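 note: growth inhibition of CP66-MEL cells determined in a cell viability assay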
Description: SANGER: Inhibition of human CP66-MEL cell growth in a cell viability assay.

[2] = system: Ca9-22; assay type: functional, cell-based, Homo sapiens; conditions: Homo sapiens, Ca9-22;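 note: growth inhibition of Ca9-22 cells, read out with a cell viability assay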
Description: SANGER: Inhibition of human Ca9-22 cell growth in a cell viability assay.

[3] = system: Calu-6; assay type: functional, cell-based, Homo sapiens; conditions: Homo sapiens, Calu-6;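 note: growth of human Calu-6 cells, read out by a cell viability assay, IC50 marking inhibition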
Description: SANGER: Inhibition of human Calu-6 cell growth in a cell viability assay.

[4] = system: D-263MG; assay type: functional, cell-based, Homo sapiens; conditions: Homo sapiens, D-263MG
Description: SANGER: Inhibition of human D-263MG cell growth in a cell viability assay.

[5] = system: EFM-19; assay type: functional, cell-based, Homo sapiens; conditions: Homo sapiens, EFM-19;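 note: growth inhibition of human EFM-19 cells, measured in a cell viability assay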
Description: SANGER: Inhibition of human EFM-19 cell growth in a cell viability assay.

[6] = system: EFO-21; assay type: functional, cell-based, Homo sapiens; conditions: Homo sapiens, EFO-21;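 note: growth inhibition of EFO-21 cells measured with a viability assay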
Description: SANGER: Inhibition of human EFO-21 cell growth in a cell viability assay.

[7] = system: ES7; assay type: functional, cell-based, Homo sapiens; conditions: Homo sapiens, ES7;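 note: growth inhibition of cultured human ES7 cells, read out as cell viability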
Description: SANGER: Inhibition of human ES7 cell growth in a cell viability assay.

[8] = system: GAMG; assay type: functional, cell-based, Homo sapiens; conditions: Homo sapiens, GAMG;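 note: cell growth inhibition measured by a viability assay in the GAMG human cell line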
Description: SANGER: Inhibition of human GAMG cell growth in a cell viability assay.

[9] = system: GP5d; assay type: functional, cell-based, Homo sapiens; conditions: Homo sapiens, GP5d;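 note: growth inhibition of human GP5d cells, read out with a cell viability assay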
Description: SANGER: Inhibition of human GP5d cell growth in a cell viability assay.

[10] = system: GT3TKB; assay type: functional, cell-based, Homo sapiens; conditions: Homo sapiens, GT3TKB;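 note: growth inhibition of the cell line, read out with a cell viability assay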
Description: SANGER: Inhibition of human GT3TKB cell growth in a cell viability assay.

[11] = system: HCE-4; assay type: functional, cell-based, Homo sapiens; conditions: Homo sapiens, HCE-4;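 note: cell viability assay measuring inhibition of growth in the human HCE-4 cell line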
Description: SANGER: Inhibition of human HCE-4 cell growth in a cell viability assay.

[12] = system: HSC-2; assay type: functional, cell-based, Homo sapiens; conditions: Homo sapiens, HSC-2;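 note: growth inhibition of human HSC-2 cells, read out by a cell viability assay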
Description: SANGER: Inhibition of human HSC-2 cell growth in a cell viability assay.

[13] = system: HT-29; assay type: functional, cell-based, Homo sapiens; conditions: Homo sapiens, HT-29;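 note: growth inhibition of human HT-29 cells, read out by a cell viability assay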
Description: SANGER: Inhibition of human HT-29 cell growth in a cell viability assay.

[14] = system: HT-3; assay type: functional, cell-based, Homo sapiens; conditions: Homo sapiens, HT-3;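 note: growth inhibition measured with a cell viability readout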
Description: SANGER: Inhibition of human HT-3 cell growth in a cell viability assay.

[15] = system: HuP-T4; assay type: functional, cell-based, Homo sapiens; conditions: Homo sapiens, HuP-T4;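 note: cell viability assay measuring how much HuP-T4 cell growth is inhibited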
Description: SANGER: Inhibition of human HuP-T4 cell growth in a cell viability assay.

[16] = system: JVM-2; assay type: functional, cell-based; conditions: Homo sapiens;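 note: growth inhibition of JVM-2 cells determined by a cell viability assay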
Description: SANGER: Inhibition of human JVM-2 cell growth in a cell viability assay.

[17] = system: KM-H2; assay type: functional, cell-based; conditions: Homo sapiens;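 note: growth inhibition of KM-H2 cells, read out by a cell viability assay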
Description: SANGER: Inhibition of human KM-H2 cell growth in a cell viability assay.

[18] = system: KOSC-2; assay type: functional, cell-based, Homo sapiens; conditions: Homo sapiens, KOSC-2;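 note: growth inhibition of KOSC-2 cells, read out by a cell viability assay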
[19] = system: KYSE-520 cell line; assay type: functional, cell-based, Homo sapiens; conditions: Homo sapiens, KYSE-520;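 note: growth inhibition of human KYSE-520 cells, read out with a viability assay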
Description: SANGER: Inhibition of human KYSE-520 cell growth in a cell viability assay.

[20] = system: LC-2-ad; assay type: functional, cell-based, Homo sapiens; conditions: Homo sapiens, LC-2-ad;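 note: growth inhibition of human LC-2-ad cells, read out with a cell viability assay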
Description: SANGER: Inhibition of human LC-2-ad cell growth in a cell viability assay.

[21] = system: LCLC-97TM1; assay type: functional, cell-based, Homo sapiens; conditions: Homo sapiens, LCLC-97TM1;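 note: cell viability assay measuring growth inhibition of human LCLC-97TM1 cells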
Description: SANGER: Inhibition of human LCLC-97TM1 cell growth in a cell viability assay.

[22] = system: MC-IXC; assay type: functional, cell-based, Homo sapiens; conditions: Homo sapiens, MC-IXC;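 note: growth inhibition of MC-IXC cells, read out with a cell viability assay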
Description: SANGER: Inhibition of human MC-IXC cell growth in a cell viability assay.

[23] = system: MDA-MB-361; assay type: functional, cell-based, Homo sapiens; conditions: Homo sapiens, MDA-MB-361
[24] = system: MDA-MB-453; assay type: functional, cell-based, Homo sapiens; conditions: Homo sapiens, MDA-MB-453
[25] = system: ME-180; assay type: functional, cell-based; conditions: Homo sapiens;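 note: cell viability assay measuring growth inhibition of ME-180 cells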
Description: SANGER: Inhibition of human ME-180 cell growth in a cell viability assay.

[26] = system: MFM-223; assay type: functional, cell-based, Homo sapiens; conditions: Homo sapiens, MFM-223
Description: SANGER: Inhibition of human MFM-223 cell growth in a cell viability assay.

[27] = system: MIA PaCa-2; assay type: functional, cell-based, Homo sapiens; conditions: Homo sapiens, MIA PaCa-2;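 note: growth inhibition of MIA PaCa-2 cells, read out with a cell viability assay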
Description: SANGER: Inhibition of human MIA-PaCa-2 cell growth in a cell viability assay.

[28] = system: NCI-H1650; assay type: functional, cell-based, Homo sapiens; conditions: Homo sapiens, NCI-H1650;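 note: growth inhibition of human NCI-H1650 cells measured by a cell viability assay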
Description: SANGER: Inhibition of human NCI-H1650 cell growth in a cell viability assay.

[29] = system: NCI-H446; assay type: functional, cell-based; conditions: Homo sapiens;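 note: growth inhibition of NCI-H446 cells determined by a cell viability assay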
Description: SANGER: Inhibition of human NCI-H446 cell growth in a cell viability assay.

[30] = system: NCI-H720; assay type: functional, cell-based; conditions: Homo sapiens;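 note: growth inhibition of human NCI-H720 cells determined by a cell viability assay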
Description: SANGER: Inhibition of human NCI-H720 cell growth in a cell viability assay.

[31] = system: NH-12; assay type: functional, cell-based, Homo sapiens; conditions: Homo sapiens, NH-12;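 note: growth inhibition of NH-12 cells, read out with a cell viability assay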
Description: SANGER: Inhibition of human NH-12 cell growth in a cell viability assay.

[32] = system: NMC-G1; assay type: functional, cell-based, Homo sapiens; conditions: Homo sapiens, NMC-G1;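 note: growth inhibition of the NMC-G1 cell line, measured with a cell viability read-out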
Description: SANGER: Inhibition of human NMC-G1 cell growth in a cell viability assay.

[33] = system: ONS-76; assay type: functional, cell-based, Homo sapiens; conditions: Homo sapiens, ONS-76;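 note: growth inhibition of human ONS-76 cells, read out with a cell viability assay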
[34] = system: OS-RC-2; assay type: functional, cell-based, Homo sapiens; conditions: Homo sapiens, OS-RC-2;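 note: growth inhibition of human OS-RC-2 cells, measured by a cell viability assay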
Description: SANGER: Inhibition of human OS-RC-2 cell growth in a cell viability assay.

[35] = system: RPMI-2650; assay type: functional, cell-based, Homo sapiens; conditions: Homo sapiens, RPMI-2650
Description: SANGER: Inhibition of human RPMI-2650 cell growth in a cell viability assay.

[36] = system: SK-N-AS; assay type: functional, cell-based, Homo sapiens; conditions: Homo sapiens, SK-N-AS;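 note: growth inhibition of human SK-N-AS cells, measured with a cell viability assay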
Description: SANGER: Inhibition of human SK-N-AS cell growth in a cell viability assay.

[37] = system: SK-N-DZ; assay type: functional, cell-based, Homo sapiens; conditions: Homo sapiens, SK-N-DZ;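 note: growth inhibition of the cancer cell line, read out through a viability assay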
Description: SANGER: Inhibition of human SK-N-DZ cell growth in a cell viability assay.

[38] = system: SK-UT-1; assay type: functional, cell-based, Homo sapiens; conditions: Homo sapiens, SK-UT-1;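 note: growth inhibition of SK-UT-1 cells, measured by a cell viability assay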
Description: SANGER: Inhibition of human SK-UT-1 cell growth in a cell viability assay.

[39] = system: SW1573; assay type: functional, cell-based, Homo sapiens; conditions: Homo sapiens, SW1573;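 note: growth inhibition of SW1573 cells, read out with a cell viability assay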
Description: SANGER: Inhibition of human SW1573 cell growth in a cell viability assay.

[40] = system: SW1783; assay type: functional, cell-based; conditions: Homo sapiens;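 note: cell growth inhibition measured with a viability assay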
Description: SANGER: Inhibition of human SW1783 cell growth in a cell viability assay.

[41] = system: SW948; assay type: functional, cell-based, Homo sapiens; conditions: Homo sapiens, SW948;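 note: growth inhibition of SW948 cells, read out with a cell viability assay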
Description: SANGER: Inhibition of human SW948 cell growth in a cell viability assay.

[42] = system: TE-1; assay type: functional, cell-based, Homo sapiens; conditions: Homo sapiens, TE-1;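 note: growth inhibition of the human TE-1 cell line, read out with a cell viability assay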
Description: SANGER: Inhibition of human TE-1 cell growth in a cell viability assay.

[43] = system: A-375; assay type: functional, cell-based, Homo sapiens; conditions: Homo sapiens, A-375;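 note: growth inhibition of A375 cells, read out with a cell viability assay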
Description: SANGER: Inhibition of human A375 cell growth in a cell viability assay.

[44] = system: A388; assay type: functional, cell-based, Homo sapiens; conditions: Homo sapiens, A388;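 note: growth inhibition of human A388 cells, read out with a cell viability assay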
Description: SANGER: Inhibition of human A388 cell growth in a cell viability assay.

[45] = system: A-431; assay type: functional, cell-based, Homo sapiens; conditions: Homo sapiens, A-431;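 note: growth inhibition of A-431 cells, determined with a cell viability read-out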
Description: SANGER: Inhibition of human A431 cell growth in a cell viability assay.

[46] = system: U-118-MG; assay type: functional, cell-based, Homo sapiens; conditions: Homo sapiens, U-118-MG
Description: SANGER: Inhibition of human U-118-MG cell growth in a cell viability assay.

[47] = system: U2OS; assay type: functional, cell-based, Homo sapiens, U-2-OS; conditions: Homo sapiens, U2OS;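 note: growth inhibition of human U-2-OS cells, determined with a cell viability assay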
Description: SANGER: Inhibition of human U-2-OS cell growth in a cell viability assay.

[48] = system: CAMA-1; assay type: functional, cell-based, Homo sapiens; conditions: Homo sapiens, CAMA-1;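 note: growth inhibition of CAMA-1 cells, read out with a cell viability assay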
Description: SANGER: Inhibition of human CAMA-1 cell growth in a cell viability assay.

[49] = system: COLO-320-HSR; assay type: functional, cell-based; conditions: Homo sapiens;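 note: growth inhibition of COLO-320-HSR cells, determined with a cell viability assay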
Description: SANGER: Inhibition of human COLO-320-HSR cell growth in a cell viability assay.

`CN(C)C/C=C/C(=O)Nc1cc2c(Nc3ccc(F)c(Cl)c3)ncnc2cc1O[C@H]1CCOC1` [AFATINIB] was tested, and the pIC50 [1] was < 6.30, the pIC50 [2] was 7.08 and the pIC50 [3] was < 6.30. For the same compound, the pIC50 [4] was < 6.30, the pIC50 [5] was < 6.30 and the pIC50 [6] was < 6.30. The pIC50 [7] was < 6.30, the pIC50 [8] was < 6.30 and the pIC50 [9] was < 6.30. The pIC50 [10] was < 6.30, the pIC50 [11] was < 6.30 and the pIC50 [12] was 6.77. The pIC50 [13] was < 6.30, the pIC50 [14] was < 6.30 and the pIC50 [15] was < 6.30. For the same compound, the pIC50 [16] was < 6.30, the pIC50 [17] was < 6.30 and the pIC50 [18] was < 6.30. The pIC50 [19] was < 6.30, the pIC50 [20] was < 6.30 and the pIC50 [21] was < 6.30. For the same compound, the pIC50 [22] was < 6.30, the pIC50 [23] was < 6.30 and the pIC50 [24] was < 6.30. The pIC50 [25] was < 6.30, the pIC50 [26] was < 6.30 and the pIC50 [27] was < 6.30. For the same compound, the pIC50 [28] was < 6.30, the pIC50 [29] was < 6.30 and the pIC50 [30] was 7.27. The pIC50 [31] was < 6.30, the pIC50 [32] was < 6.30 and the pIC50 [33] was < 6.30. The pIC50 [34] was < 6.30, the pIC50 [35] was < 6.30 and the pIC50 [36] was < 6.30. For the same compound, the pIC50 [37] was < 6.30, the pIC50 [38] was < 6.30 and the pIC50 [39] was < 6.30. The pIC50 [40] was < 6.30, the pIC50 [41] was < 6.30 and the pIC50 [42] was < 6.30. For the same compound, the pIC50 [43] was < 6.30, the pIC50 [44] was 6.43 and the pIC50 [45] was 6.32. The pIC50 [46] was < 6.30, the pIC50 [47] was < 6.30 and the pIC50 [48] was < 6.30. For the same compound, the pIC50 [49] was < 6.30.
Work on `O=C(NOCC1CC1)c1ccc(F)c(F)c1Nc1ccc(I)cc1Cl` [CI-1040] yielded a pIC50 [1] of 6.31, a pIC50 [2] of 5.53 and a pIC50 [3] of 5.17. For the same compound, the pIC50 [4] was 5.23, the pIC50 [5] was < 5.00 and the pIC50 [6] was < 5.00. For the same compound, the pIC50 [7] was < 5.00, the pIC50 [8] was 5.40 and the pIC50 [9] was 6.01. For the same compound, the pIC50 [10] was 5.26, the pIC50 [11] was < 5.00 and the pIC50 [12] was < 5.00. For the same compound, the pIC50 [13] was 5.22, the pIC50 [14] was < 5.00 and the pIC50 [15] was 5.93. For the same compound, the pIC50 [16] was < 5.00, the pIC50 [17] was < 5.00 and the pIC50 [18] was < 5.00. For the same compound, the pIC50 [19] was < 5.00, the pIC50 [20] was < 5.00 and the pIC50 [21] was 5.72. The pIC50 [22] was < 5.00, the pIC50 [23] was < 5.00 and the pIC50 [24] was < 5.00. The pIC50 [25] was 5.25, the pIC50 [26] was < 5.00 and the pIC50 [27] was 5.52. The pIC50 [28] was < 5.00, the pIC50 [29] was < 5.00 and the pIC50 [30] was < 5.00. For the same compound, the pIC50 [31] was 5.33, the pIC50 [32] was < 5.00 and the pIC50 [33] was 5.91. For the same compound, the pIC50 [34] was < 5.00, the pIC50 [35] was < 5.00 and the pIC50 [36] was 5.97. The pIC50 [37] was < 5.00, the pIC50 [38] was 5.05 and the pIC50 [39] was < 5.00. The pIC50 [40] was < 5.00, the pIC50 [41] was < 5.00 and the pIC50 [42] was < 5.00. The pIC50 [43] was 5.72, the pIC50 [44] was < 5.00 and the pIC50 [45] was 5.20. For the same compound, the pIC50 [46] was < 5.00, the pIC50 [47] was 5.44 and the pIC50 [48] was < 5.00. For the same compound, the pIC50 [49] was < 5.00.
